Data reported in paper PMC10498667 (Chemical Science, 2023).

Target: T1, 15N-labeled Aβ42 (Homo sapiens, UniProt P05067)
T1 construct: the human Ab42 peptide was artificially constructed using codons; extra Met residue (start codon) before Asp1 (N); made in house; host or cells: E. coli BL21 (DE3) pLysS, pAED4 vector
Test: 2D SOFAST-HMQC NMR with 15N-labeled Aβ42
Format: binding
Details: 15N-Aβ42 33 μM; 6 100 μM; 10 °C
Experimental: Cell viability was determined by the MTT assay [MTT = 3-(4,5-dimethylthiazol-2-yl)-2,5-diphenyltetrazolium bromide]. Cells were seeded in a 96-well plate (15,000 cells/100 µL) and treated with the samples {[flavonoid] = 5, 10, 25, 50, and 100 µM (1% v/v DMSO)}. After 24 h incubation, 5Y cells were washed with phosphate buffered saline (PBS; GIBCO). MTT [5 mg/mL in PBS (pH 7.4, GIBCO); 25 µL] was added to each well and the plate was incubated for 4 h at 37 °C. The formazan produced by cells was solubilized using an acidic solution of DMF (pH 4.5, 50% v/v, aq) and sodium dodecyl sulfate (SDS; 20% w/v) overnight at room temperature in the dark. Absorbance was measured at 600 nm by a microplate reader (Molecular Devices). Cell viability, relative to that of the cells containing an equivalent amount of DMSO, was calculated.
The measurements were conducted in triplicate. […]
loading into the instrument. […]
The initial delay and the reference power were 60 s and 10 µcal/s, […]
The ITC thermogram and binding isotherm were shown after the subtraction of the dilution heat.
The binding isotherm after baseline correction was fitted to the one-set-of-sites binding model using the MicroCal Origin software (version 7.0).
Expression and Purification of 15N-labeled Recombinant Ab42. […]

T1 sequence (P05067 671-713 limits assumed): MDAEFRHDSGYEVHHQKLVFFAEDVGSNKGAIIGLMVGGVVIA

## O=c1c(-c2ccc(O)c(O)c2)coc2cc(O)c(O)c(O)c12 [compound 6, 3-(3,4-dihydroxyphenyl)-5,6,7-trihydroxy-4H-chromen-4-one]
  decrease of overall NMR peak intensity: ca. 20%
